Source: patent US20180186814A1, “TRICYCLIC COMPOUND HAVING SULFINYL OR SULFONYL” (Shionogi & Co., Ltd., priority 2015, published 2018)
In brackets after ≈: the same amount, converted by molar mass. Values belong to the compound of their own block, whether it stands above or below them.

What was measured:
Type in all cases: cell-based
E. coli SR09613 = assay: MIC by microbroth dilution (CLSI), strain No. 6; conditions: for MIC: Escherichia coli, SR09613, read-out: minimum inhibitory concentration (MIC), Strain No. 6; for minimum inhibitory concentration (MIC), Strain No. 6: E. coli SR09613, CMY-2 type, plasmid AmpC-producing strain, ceftazidime-resistant, cefepime-sensitive, cation-adjusted Mueller-Hinton broth
Experimental: (§1) The minimum inhibitory concentration (MIC) was measured by the microbroth dilution method in accordance with the procedures recommended by CLSI (Clinical and Laboratory Standards Institute) using 1×10^5 CFU/mL as an inoculum dose and a cation-adjusted Mueller-Hinton broth as a test medium.
(§2) The strains used are as described in the table below.

E. cloacae ATCC13047 = assay: MIC by microbroth dilution (CLSI), strain No. 1; conditions: E. cloacae ATCC13047, AmpC, ceftazidime-resistant, cefepime-sensitive, cation-adjusted Mueller-Hinton broth; for MIC: Enterobacter cloacae, read-out: minimum inhibitory concentration (MIC), Strain No. 1
Experimental: as §1, §2

K. pneumoniae SR01453 = assay: MIC by microbroth dilution (CLSI), strain No. 3; conditions: K. pneumoniae SR01453, NDM-1, MBL-producing strain, carbapenem-resistant, cation-adjusted Mueller-Hinton broth; for MIC: Klebsiella pneumoniae, read-out: minimum inhibitory concentration (MIC), Strain No. 3
Experimental: as §1, §2

E. coli SR09616 = assay: MIC by microbroth dilution (CLSI), strain No. 7; conditions: Escherichia coli, SR09616, read-out: minimum inhibitory concentration (MIC), Strain No. 7
Experimental: as §1, §2

K. pneumoniae NCTC13443 = assay: MIC by microbroth dilution (CLSI), strain No. 4; conditions: K. pneumoniae NCTC13443, NDM-1, MBL-producing strain, carbapenem-resistant, cation-adjusted Mueller-Hinton broth; for MIC: Klebsiella pneumoniae, read-out: minimum inhibitory concentration (MIC), Strain No. 4
Experimental: as §1, §2

E. cloacae SR36276 = assay: MIC by microbroth dilution (CLSI), strain No. 5; conditions: E. cloacae SR36276, AmpC, highly AmpC-producing strain, ceftazidime-resistant, cefepime-sensitive, cation-adjusted Mueller-Hinton broth; for MIC: Enterobacter cloacae, read-out: minimum inhibitory concentration (MIC), Strain No. 5
Experimental: as §1, §2

K. pneumoniae SR01358 = assay: MIC by microbroth dilution (CLSI), strain No. 2; conditions: K. pneumoniae SR01358, KPC-2, KPC-producing strain, cation-adjusted Mueller-Hinton broth; for MIC: Klebsiella pneumoniae, read-out: minimum inhibitory concentration (MIC), Strain No. 2
Experimental: as §1, §2

SMILES: Nc1nc(/C(=N/OCc2ccncc2)C(=O)N[C@@H]2C(=O)N3[C@@H]2[S@@+]([O-])C[C@@H]2CC(=O)O[C@@]23C(=O)O)cs1 [Compound I-040]
MIC (E. coli SR09613): 4 µg/mL (≈ 7.48 µM)

SMILES: C[n+]1ccc(CO/N=C(\C(=O)N[C@@H]2C(=O)N3[C@@H]2[S@@+]([O-])C[C@@H]2CC(=O)O[C@@]23C(=O)[O-])c2csc(N)n2)cc1 [Compound I-041]
MIC (E. cloacae ATCC13047): 1 µg/mL (≈ 1.82 µM)
MIC (K. pneumoniae SR01453): 0.5 µg/mL (≈ 0.911 µM)
MIC (E. coli SR09613): 0.5 µg/mL (≈ 0.911 µM)
MIC (E. coli SR09616): 2 µg/mL (≈ 3.65 µM)

SMILES: Nc1nc(/C(=N/OCc2cccnc2)C(=O)N[C@@H]2C(=O)N3[C@@H]2[S@@+]([O-])C[C@@H]2CC(=O)O[C@@]23C(=O)O)cs1 [Compound I-042]
MIC (K. pneumoniae SR01453): 2 µg/mL (≈ 3.74 µM)
MIC (E. coli SR09613): 4 µg/mL (≈ 7.48 µM)
MIC (E. coli SR09616): 4 µg/mL (≈ 7.48 µM)

SMILES: C[n+]1cccc(CO/N=C(\C(=O)N[C@@H]2C(=O)N3[C@@H]2[S@@+]([O-])C[C@@H]2CC(=O)O[C@@]23C(=O)[O-])c2csc(N)n2)c1 [Compound I-043]
MIC (K. pneumoniae SR01453): 2 µg/mL (≈ 3.65 µM)
MIC (E. coli SR09613): 2 µg/mL (≈ 3.65 µM)

SMILES: CC(CO)(CO)O/N=C(\C(=O)N[C@@H]1C(=O)N2[C@@H]1[S@@+]([O-])C[C@@H]1CC(=O)O[C@@]12C(=O)O)c1csc(N)n1 [Compound I-045]
MIC (E. cloacae ATCC13047): 0.5 µg/mL (≈ 0.941 µM)
MIC (K. pneumoniae SR01453): 0.25 µg/mL (≈ 0.47 µM)
MIC (K. pneumoniae NCTC13443): 8 µg/mL (≈ 15.1 µM)
MIC (E. cloacae SR36276): 2 µg/mL (≈ 3.76 µM)
MIC (E. coli SR09613): 0.25 µg/mL (≈ 0.47 µM)

SMILES: Nc1nc(/C(=N/OCC(=O)O)C(=O)N[C@@H]2C(=O)N3[C@@H]2[S@@+]([O-])C[C@@H]2CC(=O)O[C@@]23c2nnn[nH]2)cs1 [Compound I-046]
MIC (E. cloacae ATCC13047): 1 µg/mL (≈ 1.9 µM)
MIC (K. pneumoniae SR01453): 0.5 µg/mL (≈ 0.952 µM)
MIC (E. cloacae SR36276): 0.5 µg/mL (≈ 0.952 µM)

SMILES: CC(=O)NCCO/N=C(\C(=O)N[C@@H]1C(=O)N2[C@@H]1[S@@+]([O-])C[C@@H]1CC(=O)O[C@@]12C(=O)O)c1csc(N)n1 [Compound I-054]
minimum inhibitory concentration (MIC), Strain No. 1 (E. cloacae ATCC13047): 1 µg/mL (≈ 1.89 µM)
minimum inhibitory concentration (MIC), Strain No. 3 (K. pneumoniae SR01453): 0.5 µg/mL (≈ 0.946 µM)
minimum inhibitory concentration (MIC), Strain No. 5 (E. cloacae SR36276): 4 µg/mL (≈ 7.57 µM)
minimum inhibitory concentration (MIC), Strain No. 6 (E. coli SR09613): 0.5 µg/mL (≈ 0.946 µM)

SMILES: Nc1nc(/C(=N/OCCO)C(=O)N[C@@H]2C(=O)N3[C@@H]2[S@@+]([O-])C[C@@H]2CC(=O)O[C@@]23C(=O)[O-])cs1.[Na+] [Compound I-059]
MIC (E. cloacae ATCC13047): 0.063 µg/mL
MIC (K. pneumoniae SR01358): 0.5 µg/mL
MIC (K. pneumoniae SR01453): 0.063 µg/mL
MIC (K. pneumoniae NCTC13443): 1 µg/mL
MIC (E. cloacae SR36276): 0.25 µg/mL

SMILES: NC(=O)CO/N=C(\C(=O)N[C@@H]1C(=O)N2[C@@H]1[S@@+]([O-])C[C@@H]1CC(=O)O[C@@]12C(=O)[O-])c1csc(N)n1.[Na+] [Compound I-060]
MIC (E. cloacae ATCC13047): 0.125 µg/mL
MIC (K. pneumoniae SR01358): 0.5 µg/mL
MIC (K. pneumoniae SR01453): 0.125 µg/mL
MIC (K. pneumoniae NCTC13443): 4 µg/mL
MIC (E. cloacae SR36276): 0.5 µg/mL

minimum inhibitory concentration (MIC), Strain No. 1 (E. cloacae ATCC13047): 0.125 µg/mL
minimum inhibitory concentration (MIC), Strain No. 2 (K. pneumoniae SR01358): 0.5 µg/mL
minimum inhibitory concentration (MIC), Strain No. 3 (K. pneumoniae SR01453): 0.25 µg/mL
minimum inhibitory concentration (MIC), Strain No. 4 (K. pneumoniae NCTC13443): 4 µg/mL
minimum inhibitory concentration (MIC), Strain No. 5 (E. cloacae SR36276): 0.25 µg/mL
SMILES: Nc1nc(/C(=N/OCCC(=O)O)C(=O)N[C@@H]2C(=O)N3[C@@H]2[S@@+]([O-])C[C@@H]2CC(=O)O[C@@]23C(=O)[O-])cs1.[Na+] [Compound I-061]

SMILES: Nc1nc(/C(=N/OCc2cc(O)no2)C(=O)N[C@@H]2C(=O)N3[C@@H]2[S@H](O)C[C@@H]2CC(=O)O[C@@]23C(=O)[O-])cs1.[Na+] [Compound I-063]
minimum inhibitory concentration (MIC), Strain No. 6 (E. coli SR09613): 4 µg/mL

SMILES: COC(=O)NCCO/N=C(\C(=O)N[C@@H]1C(=O)N2[C@@H]1[S@@+]([O-])C[C@@H]1CC(=O)O[C@@]12C(=O)[O-])c1csc(N)n1.[Na+] [Compound I-064]
MIC (K. pneumoniae SR01453): 2 µg/mL

SMILES: CO/N=C(\C(=O)N[C@@H]1C(=O)N2[C@@H]1S(=O)(=O)C[C@@H]1CC(=O)O[C@@]12C(=O)[O-])c1csc(N)n1.[Na+] [Compound I-070]
MIC (E. cloacae ATCC13047): 1 µg/mL
MIC (K. pneumoniae SR01358): 1 µg/mL
MIC (K. pneumoniae SR01453): 0.25 µg/mL
MIC (K. pneumoniae NCTC13443): 4 µg/mL
MIC (E. cloacae SR36276): 4 µg/mL

SMILES: CCO/N=C(\C(=O)N[C@@H]1C(=O)N2[C@@H]1S(=O)(=O)C[C@@H]1CC(=O)O[C@@]12C(=O)[O-])c1csc(N)n1.[Na+] [Compound I-071]
MIC (E. cloacae ATCC13047): 2 µg/mL
MIC (K. pneumoniae SR01453): 1 µg/mL
MIC (K. pneumoniae NCTC13443): 8 µg/mL
MIC (E. cloacae SR36276): 4 µg/mL

SMILES: NCCO/N=C(\C(=O)N[C@@H]1C(=O)N2[C@@H]1[S@@+]([O-])C[C@@H]1CC(=O)O[C@@]12C(=O)O)c1csc(N)n1 [Compound I-072]
MIC (E. coli SR09613): 4 µg/mL (≈ 8.22 µM)
MIC (E. coli SR09616): 4 µg/mL (≈ 8.22 µM)
